{
  "source": "patent US11813264B2",
  "about": "“PAR1 modulation to alter myelination” (Mayo Foundation for Medical Education and Research, priority 2014, dated 2023)",
  "key": {"[1]": {"system": "oligodendrocyte progenitor cells (OPCs)", "assay": "OPC process outgrowth", "format": "cell-based, mouse", "settings": "24 h", "experimental": "(§1) Oligodendrocyte Cultures: Purified cortical oligodendrocyte progenitor cells (OPCs) and differentiated oligodendrocytes were isolated from mixed glial cultures derived from postnatal day 1 mice (McCarthy and de Vellis, J Cell Blot 85:890-902, 1980). Glial cultures were grown in media containing DMEM, 2 mM Glutamax, 1 mM sodium pyruvate, 20 mM HEPES, and 10% heat-inactivated fetal calf serum (Atlanta Biologicals, Lawrenceville, GA). OPCs were isolated from 10 days-in-vitro (DIV) mixed glial cultures by overnight shaking and purified by differential adhesion. OPCs were seeded in defined Neurobasal A media containing 1% N2, 50 U/mL penicillin/streptomycin, 2 mM Glutamax, 1 mM sodium pyruvate, 0.45% glucose, and 50 μM β-mercaptoethanol (Sigma Aldrich, USA). OPCs were seeded at 3×10^4/cm^2 onto tissue culture plastic or 12 mm glass cover slips coated with poly-L-lysine (PLL, 10 μg/mL). After 24 h, cultures were 92-98% immunoreactive (IR) for sulfatide (O4) and by 72 hours at least 80% were also MBP-IR.\n(§2) PAR agonist-induced changes in oligodendrocyte morphology: To determine the effects of recombinant Klk6, Klk1, thrombin, or PAR1-AP on oligodendroglia, 3 DIV PAR1^+/+, PAR1^−/−, and PAR2^−/− oligodendrocytes, PAR1^+/+ OPCs immediately post purification, or Oli-neu cells were grown on cover slips in the presence of agonists for 24 h. For ATP toxicity assays, oligodendrocytes were incubated with ATP (50 μM, Sigma Aldrich) in the presence of Klk6 or Klk1. Following each treatment, oligodendrocyte and OPC cultures were immunolabeled for O4 to visualize the cell body and processes. Oli-neu processes were visualized by staining the actin cytoskeleton with Cy3-conjugated Phalloidin.\n(§3) To assess the effects of Klk6 and other PAR1 agonists on oligodendrocyte morphology and process stability, 20× digital micrographs were overlaid with a 780 μm^2 grid and ImageJ software 1.45r (National Institutes of Health) used to record cell number and the number of processes crossing horizontal grid lines (Scarisbrick et al., Brain 125:1283-1296, 2002). Data are expressed as the mean number of O4^+ or Phalloidin^+ processes per DAPI^+ cell (±SEM).\n(§4) Changes in OPC or oligodendrocyte morphology were quantified from five microscopic fields per cover slip with the mean and SEM calculated across three cover slips per experiment. Each experiment was repeated at least twice using independent cultures. Analysis of oligodendrocyte morphology was performed without knowledge of treatment groups."}, "spinal cord white matter": {"system": "spinal cord white matter", "assay": "Microinjection of Klk6 or PAR1-AP into spinal cord dorsal column white matter", "format": "in vivo, mouse", "experimental": "In vivo effects of excess Klk6 or PAR1-AP in spinal cord white matter: All mice were administered Buprenorphine preoperatively (Buprenex, 0.03 mg/kg, intraperitoneal (i.p.), Reckitt Benckise, Slough, UK) and every 12 hours for the first 48 hours following surgery. Surgical anesthesia was induced in age-matched male C57BL6/J or PAR12/2 mice using Ketamine (Ketaset, 80 mg/kg, Fort Dodge Animal Health, Fort Dodge, IA) and Xylazine i.p. (Anased, 10 mg/kg, Lloyd Laboratories, Shenendoah, IA). A thoracic (T11-T12) laminectomy was performed and a 30-40 μm glass capillary needle inserted into a 10 μL gas-tight Hamilton Syringe (Hamilton Company, Reno, NV) used to deliver 2 μL of Klk6 (0.01 μg/μL (300 nM)), PAR1-AP (0.01 μg/μL (100 μM)), or vehicle (physiologic saline) alone (n=3 for each treatment group) using a stereotaxic injection system (Stoelting, Wood Dale, IL). Under micromanipulator control (MyNeurolab, Richmond, IL), the needle was inserted 350 μm into the dorsal column, infusion carried out over 5 minutes and the needle left in place for 3 minutes to avoid backflow. All mice received 0.5 mL of sterile saline and Baytril (2.5 mg/kg, Bayer Healthcare, Shawnee Mission, KS) i.p. postoperatively.\nSeventy-two hours after microinjection of PAR1 agonists, mice were deeply anesthetized with Nembutal (50 mg/kg, i.p., Lundbeck, Deerfield, IL) and perfused transcardially with 4% PFA. Two millimeter transverse spinal cord segments encompassing the microinjection epicenter as well as 2 mm rostral and caudal were embedded in paraffin. Six micrometer sections were cut and slide mounted serially. Every sixth slide was stained with hematoxylin and eosin (H&E). Adjacent sections were immunostained for oligodendroglia using an antibody specific for CC-1/APC (ab16794, AbCam, Cambridge, MA), myelin using an antibody recognizing MBP (MAB386, Millipore, Bedford, MA), and standard avidin-biotin immunoperoxidase techniques (Scarisbrick et al., J Comp Neurol 431:347-361, 2001; and Scarisbrick et al. 2012b, supra). Stained sections were cover slipped with Permount (Fisher Scientific, Pittsburgh, PA) containing 2 mg/mL bisbenzamide to visualize nuclei (Sigma Aldrich).\nMeasurements of white matter lesion area were based on signs of pathology (vacuolation, tissue destruction, hemorrhage) in 20× digital images of H&E stained sections. The largest lesion area in each animal was used to determine mean maximal lesion area and expressed in μm^2. The integrity of MBP immunoreactivity was assessed in sections for 2,000 μm rostrocaudal to the microinjection site. The number of dorsal column CC-1^+/DAPI^+ cells was quantified in sections across […] of spinal cord extending rostrocaudal to the epicenter. The mean area of dorsal column white matter in the intact spinal cord was approximately […]. To put the number of CC-1^+ oligodendrocytes into context, the mean number CC-1V cells per mm^2 was evaluated as the mean number per […]. Sections stained for CC-1 were also stained for GFAP (Sigma Aldrich), allowing for the exclusion of CC-1^+ astrocytes; however, no examples of double labeled cells were observed."}, "[2]": {"system": "rat primary oligodendrocytes", "settings": "30 or 300 nM, 24 hours; cited from earlier work"}, "primary oligodendrocytes": {"system": "primary oligodendrocytes", "assay": "Klk6-induced process retraction in primary oligodendrocytes (O4+ processes per cell)", "format": "cell-based, mouse", "experimental": "as §1, §2, §3, §4"}},
  "data": [
    {"substance": "Klk6: Recombinant murine kallikrein-related peptidase 6 expressed using a baculovirus system", "values": [
      {"measurement": "fewer processes per cell compared with controls", "setting": "[1]; 150 nM", "result": "~60", "unit": "%"},
      {"measurement": "number of OPCs", "setting": "[1]", "result": "significantly reduced"},
      {"measurement": "OPC process extension / outgrowth", "setting": "[1]; Klk6 150 nM, thrombin 135 nM, Klk1 150 nM", "result": "significantly fewer processes than thrombin treated cultures"},
      {"measurement": "maximal lesion area relative to saline alone", "setting": "spinal cord white matter; PAR1+/+ mice", "result": "enhanced"},
      {"measurement": "reduction of CC-1+ cells in dorsal column white matter", "setting": "spinal cord white matter; PAR1+/+ mice", "result": "~15", "unit": "%"},
      {"measurement": "rostrocaudal white matter pathology versus saline alone", "setting": "spinal cord white matter; PAR1+/+ mice", "result": "two-fold greater"},
      {"measurement": "loss of MBP-immunoreactivity relative to saline alone", "setting": "spinal cord white matter; PAR1+/+ mice, 72 hours", "result": "~45", "unit": "%"},
      {"measurement": "white matter surrounding injection site with vacuolating myelinopathy, tissue destruction and hemorrhage", "setting": "spinal cord white matter; PAR1+/+ mice, 0.02 μg total, 72 hours", "result": "over 1,200 μm"},
      {"measurement": "rostrocaudal white matter pathology", "setting": "spinal cord white matter; PAR1+/+ mice, 0.02 μg, 72 hours", "result": "1,242.0±95.3 μm"},
      {"measurement": "white matter pathology", "setting": "spinal cord white matter; PAR1-/- mice", "result": "largely absent"},
      {"measurement": "process retraction and oligodendrocyte degeneration", "setting": "[2]", "result": "significant process retraction without oligodendrocyte degeneration"},
      {"measurement": "oligodendrocyte process retraction compared with controls", "setting": "primary oligodendrocytes; PAR1+/+ oligodendrocytes 3 DIV, 30 or 300 nM, 24 h", "result": "significant and statistically equivalent oligodendrocyte process retraction"},
      {"measurement": "number of O4+ cells", "setting": "primary oligodendrocytes; PAR1+/+, PAR1-/- or PAR2-/- cells", "result": "No significant differences"},
      {"measurement": "oligodendrocyte process retraction", "setting": "primary oligodendrocytes; PAR1-/- oligodendrocytes, 30 or 300 nM", "result": "did not exhibit statistically significant process retraction"},
      {"measurement": "oligodendrocyte process retraction", "setting": "primary oligodendrocytes; PAR2-/- oligodendrocytes, 30 or 300 nM", "result": "process retraction comparable to that seen in PAR1^+/+ cultures"}
    ]}
  ]
}
